Where a name gives a salt, the structure may show the parent alone.
Assays:
[1] = target: T1, human vasopressin V1a receptor (Homo sapiens, UniProt P37288); test: Human vasopressin V1a receptor binding assay; conditions: for Ki: 1321N1 cell membranes, [3H]vasopressin, read-out: Ki (nM) on hV1a cell line
Experimental: Human Vasopressin V1a Receptor Binding Assay
Cells were suspended in preparative buffer (50 mM Tris, 1 mM EDTA, 0.1 mM PMSF) and homogenized with glass homogenizing potter. To separate the raw membrane fraction two consecutive centrifugation procedures (40,000 g for 20 minutes at 4° C.) were executed, then the membrane was taken into the preparatory buffer during a final washing step, it was divided into aliquots which were stored at −80° C. until the time of measurement.
To determine the final affinity value, the results of at least two independent experiments were taken into account.
Non-specific binding values were determined in the presence of unlabeled 1.2×10^−6 M (Arg^8)-vasopressin. Samples were incubated in a total volume of 0.33 ml for 60 minutes at 27° C. Membrane-bound and free ligands were separated by filtration through a 0.5% polyethyleneimine-impregnated UniFilter® GF/B™. After drying the filter plates, 40 μl Microscint-20 (Packard) scintillation cocktail was added to the samples. Finally, radioactivity was measured using MicroBeta^2 Microplate Counter (Perkin Elmer).
During fitting, the asymptotes are not fixed. The K values (inhibition constant) are given with Cheng-Prusoff equation Ki=IC50/[1+(L/KD)] wherein [L] is the radioligand concentration used in the experiment and [KD] is the affinity of the radioactively labelled ligand for the given receptor. The KD is determined beforehand using the Scatchard curve.

[2] = target: T1, human vasopressin V1a receptor; test: Functional assay on human vasopressin V1a receptor expressing cell line (intracellular Ca2+ fluorescence); assay type: cell-based; conditions: 1321N1 cells, (Arg8)-vasopressin at EC80; read-out: IC50 (nM) on hV1a cell line
Experimental: Functional Assay to Test Compounds on Human Vasopressin V1a Receptor Expressing Cell Line
The ordinary secondary messenger pathway of the measured GPCR receptor was used, the endogenous Gq-associated system.
Using 30,000 cells/plate, compounds were measured on 96-well plates. The buffer composition of the measurements was the following (expressed in mM): 140 NaCl, 5 KCl, 2 CaCl2), 2 MgCl2, 10 glucose, 10 HEPES (4-(2-hydroxyethyl)-1-piperazine-ethanesulfonic acid), 2 probenecid, pH=7.4. FLIPR Calcium 5 kit (Molecular Devices) was used as fluorescent dye, the medium was not removed prior to filling with the dye and the cells were not washed out either before or after. The incubation was performed at room temperature, the final concentration of DMSO was 1%. The materials to be measured were administered in 15 to 20 minutes pretreatment, at least two parallels of each compound in each concentration was measured.
Fluorescence signal was used to determine the intracellular Ca^2+ level, the reader was FlexStation II96. […] The fluorescence signal was logged in every 1.4 seconds for 1 minute. The reference compounds used were the following: (Arg^8)-vasopressin as agonist at concentration of EC80, determined for each plate, and relcovaptan as antagonist at 1 μM. The % of inhibition at each concentration and the IC50 value of the compounds were determined where a concentration line was also measured.
The total AVP concentration-response curve was recorded on each plate. The effect of compounds measured was expressed by percentage of relative inhibition compared to control response. […] The average IC50 values were calculated from at least three independent measurements in all cases.

T1 sequence (P37288 whole entry): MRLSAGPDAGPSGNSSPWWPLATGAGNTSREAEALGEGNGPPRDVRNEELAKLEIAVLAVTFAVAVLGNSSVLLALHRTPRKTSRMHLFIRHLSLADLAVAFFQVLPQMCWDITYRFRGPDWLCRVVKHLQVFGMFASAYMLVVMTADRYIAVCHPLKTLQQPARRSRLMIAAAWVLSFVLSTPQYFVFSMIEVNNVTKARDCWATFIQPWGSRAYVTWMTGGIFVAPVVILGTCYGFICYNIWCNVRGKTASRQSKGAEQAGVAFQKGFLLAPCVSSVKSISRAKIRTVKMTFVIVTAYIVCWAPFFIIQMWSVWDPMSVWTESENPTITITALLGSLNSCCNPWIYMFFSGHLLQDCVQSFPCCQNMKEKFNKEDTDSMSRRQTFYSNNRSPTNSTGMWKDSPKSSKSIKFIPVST

Ki [1]	IC50 [2]	% at 1 μM, printed in the column Ki (nM) on hV1a cell line ([1]; at 1 μM)	SMILES
10.1 nM	210 nM		COC1(C)CCC(c2nnc3n2-c2ccc(Cl)cc2CC(NC(C)C)C3)CC1 (mixture of isomers) [Example 203, 8-chloro-1-(4-methoxy-4-methylcyclohexyl)-N-(propan-2-yl)-5,6-dihydro-4H-[1,2,4]triazolo[4,3-a][1]benzazepin-5-amine]
0.3 nM	2.5 nM		CO[C@@H]1Cc2cc(Cl)ccc2-n2c(nnc2[C@H]2CC[C@H](C(F)(F)F)CC2)C1 (single isomer, unassigned) [Example 132]
0.4 nM	6.5 nM		CO[C@H]1Cc2cc(Cl)ccc2-n2c(nnc2[C@H]2CC[C@H](C(F)(F)F)CC2)C1 (single isomer, unassigned) [Example 133]
0.4 nM	1.1 nM		CO[C@@H]1Cc2cc(F)ccc2-n2c(nnc2[C@H]2CC[C@H](Oc3ccccn3)CC2)C1 (single isomer, unassigned) [Example 176]
0.3 nM	0.9 nM		CO[C@H]1Cc2cc(F)ccc2-n2c(nnc2[C@H]2CC[C@H](Oc3ccccn3)CC2)C1 (single isomer, unassigned) [Example 177]
7 nM	170 nM		NC1Cc2cc(Cl)ccc2-n2c(nnc2C2CCN(c3ccccn3)CC2)C1 (stereo not drawn) [Example 2, 8-chloro-1-[1-(pyridin-2-yl)piperidin-4-yl]-5,6-dihydro-4H-[1,2,4]triazolo[4,3-a][1]benzazepine-5-amine]
2.1 nM	16 nM		CC(=O)NC1Cc2cc(Cl)ccc2-n2c(nnc2C2CCN(c3ccccn3)CC2)C1 (stereo not drawn) [Example 3, N-[8-chloro-[1-(pyridin-2-yl)piperidin-4-yl]-5,6-dihydro-4H-[1,2,4]triazolo[4,3-a][1]benzazepin-5-yl]acetamide]
70 nM	825 nM		CC(C)C(=O)NC1Cc2cc(Cl)ccc2-n2c(nnc2C2CCN(c3ccccn3)CC2)C1 (stereo not drawn) [Example 4]
3.8 nM	17 nM		CC(C)(C)OC(=O)NC1Cc2cc(Cl)ccc2-n2c(nnc2[C@H]2CC[C@H](Oc3ccccn3)CC2)C1 (stereo partly drawn) [Example 5, Tert-butyl {8-chloro-1-[trans-4-(pyridin-2-yloxy)cyclohexyl]-5,6-dihydro-4H-[1,2,4]triazolo[4,3-a][1]benzazepine-5-yl}carbamate]
2.1 nM	20 nM		N[C@H]1Cc2cc(Cl)ccc2-n2c(nnc2[C@H]2CC[C@H](Oc3ccccn3)CC2)C1 [Example 7, (5S)-8-chloro-1[trans-4-(pyridin-2-yloxy)cyclohexyl]-5,6-dihydro-4H-[1,2,4]triazolo[4,3-a][1]benzazepine-5-amine]
1.8 nM	12 nM		NCC(=O)NC1Cc2cc(Cl)ccc2-n2c(nnc2[C@H]2CC[C@H](Oc3ccccn3)CC2)C1 (stereo partly drawn) [Example 10, N-{8-chloro-1-[trans-4-(pyridin-2-yloxy)cyclohexyl]-5,6-dihydro-4H-[1,2,4]triazolo[4,3-a][1]benzazepin-5-yl}glycinamide]
32 nM	480 nM		NCC(=O)N[C@H]1Cc2cc(Cl)ccc2-n2c(nnc2[C@H]2CC[C@H](Oc3ccccn3)CC2)C1 [Example 11, N-{(5S)-8-chloro-1-[trans-4-(pyridin-2-yloxy)cyclohexyl]-5,6-dihydro-4H-[1,2,4]triazolo[4,3-a][1]benzazepin-5-yl}glycinamide]
5 nM	45 nM		N[C@H](C(=O)N[C@@H]1Cc2cc(Cl)ccc2-n2c(nnc2[C@H]2CC[C@H](Oc3ccccn3)CC2)C1)c1ccccc1 [Example 13, (2S)-2-amino-N-{(5R)-8-chloro-1-[trans-4-(pyridin-2-yloxy)cyclohexyl]-5,6-dihydro-4H-[1,2,4]triazolo[4,3-a][1]benzazepin-5-yl}-2-phenylacetamide]
1.1 nM	10 nM		N[C@@H](C(=O)N[C@@H]1Cc2cc(Cl)ccc2-n2c(nnc2[C@H]2CC[C@H](Oc3ccccn3)CC2)C1)c1ccccc1 [Example 14, (2R)-2-amino-N-{(5R)-8-chloro-1-[trans-4-(pyridin-2-yloxy)cyclohexyl]-5,6-dihydro-4H-[1,2,4]triazolo[4,3-a][1]benzazepin-5-yl}-2-phenylacetamide]
0.4 nM	3.7 nM		O=C(CO)NC1Cc2cc(Cl)ccc2-n2c(nnc2[C@H]2CC[C@H](Oc3ccccn3)CC2)C1 (stereo partly drawn) [Example 15, N-{8-chloro-1-[trans-4-(pyridin-2-yloxy)cyclohexyl]-5,6-dihydro-4H-[1,2,4]triazolo[4,3-a][1]benzazepin-5-yl}-2-hydroxyacetamide]
3 nM	10 nM		CN(C)C(=O)NC1Cc2cc(Cl)ccc2-n2c(nnc2[C@H]2CC[C@H](Oc3ccccn3)CC2)C1 (stereo partly drawn) [Example 16, 3-{8-chloro-1-[trans-4-(pyridin-2-yloxy)cyclohexyl]-5,6-dihydro-4H-[1,2,4]triazolo[4,3-a][1]benzazepin-5-yl}-1,1-dimethylurea]
2.1 nM	35 nM		CN(C)CC(=O)NC1Cc2cc(Cl)ccc2-n2c(nnc2[C@H]2CC[C@H](Oc3ccccn3)CC2)C1 (stereo partly drawn) [Example 17, N-{8-chloro-1-[trans-4-(pyridin-2-yloxy)cyclohexyl]-5,6-dihydro-4H-[1,2,4]triazolo[4,3-a][1]benzazepin-5-yl}-N^2,N^2-dimethylglycinamide]
0.5 nM	2.8 nM		CN(C)C1Cc2cc(Cl)ccc2-n2c(nnc2[C@H]2CC[C@H](Oc3ccccn3)CC2)C1 (stereo partly drawn) [Example 22, 8-chloro-N,N-dimethyl-1-[trans-4-(pyridin-2-yloxy)cyclohexyl]-5,6-dihydro-4H-[1,2,4]triazolo[4,3-a][1]benzazepine-5-amine]
1.1 nM	7 nM		Clc1ccc2c(c1)CC(NC1CCC1)Cc1nnc([C@H]3CC[C@H](Oc4ccccn4)CC3)n1-2 (stereo partly drawn) [Example 27, 8-chloro-N-cyclobutyl-1-[trans-4-(pyridin-2-yloxy)cyclohexyl]-5,6-dihydro-4H-[1,2,4]triazolo[4,3-a][1]benzazepine-5-amine]
0.7 nM	5.4 nM		Clc1ccc2c(c1)CC(NC1COC1)Cc1nnc([C@H]3CC[C@H](Oc4ccccn4)CC3)n1-2 (stereo partly drawn) [Example 28, 8-chloro-N-(oxetan-3-yl)-1[trans-4-(pyridin-2-yloxy)cyclohexyl]-5,6-dihydro-4H-[1,2,4]triazolo[4,3-a][1]benzazepine-5-amine]
1.4 nM	15 nM		FC1(F)CCC(NC2Cc3cc(Cl)ccc3-n3c(nnc3[C@H]3CC[C@H](Oc4ccccn4)CC3)C2)CC1 (stereo partly drawn) [Example 30, 8-chloro-N-(4,4-difluorocyclohexyl)-1-[trans-4-(pyridin-2-yloxy)cyclohexyl]-5,6-dihydro-4H-[1,2,4]triazolo[4,3-a][1]benzazepine-5-amine]
17 nM	260 nM		COc1ccc2c(c1)CC(N)Cc1nnc([C@H]3CC[C@H](Oc4ccccn4)CC3)n1-2 (stereo partly drawn) [Example 31, 8-methoxy-1-[trans-4-(pyridin-2-yloxy)cyclohexyl]-5,6-dihydro-4H-[1,2,4]triazolo[4,3-a][1]benzazepine-5-amine hydrochloride]
6 nM	85 nM		COc1ccc2c(c1)CC(NC(C)C)Cc1nnc([C@H]3CC[C@H](Oc4ccccn4)CC3)n1-2 (stereo partly drawn) [Example 32, 8-methoxy-N-(propan-2-yl)-1-[trans-4-(pyridin-2-yloxy)cyclohexyl]-5,6-dihydro-4H-[1,2,4]triazolo[4,3-a][1]benzazepine-5-amine]
600 nM			CC(C)NC1Cc2cc(Cl)ccc2-n2c(nnc2C2CC(F)(F)C2)C1 (stereo not drawn) [Example 41, 8-chloro-1-(3,3-difluorocyclobutyl)-N-(propan-2-yl)-5,6-dihydro-4H-[1,2,4]triazolo[4,3-a][1]benzazepine-5-amine]
		42% at 1 μM	CC(C)NC1Cc2cc(Cl)ccc2-n2c(nnc2C2CCC(F)(F)CC2)C1 (stereo not drawn) [Example 42, 8-chloro-1-(4,4-difluorocyclohexyl)-N-(propan-2-yl)-5,6-dihydro-4H-[1,2,4]triazolo[4,3-a][1]benzazepine-5-amine]

— US11298363B2, “Triazolobenzazepines as vasopressin V1a receptor antagonists” (RICHTER GEDEON NYRT., priority 2017, dated 2022)
